Results taken from patent US20180325861A1, “NOVEL CANNABINOID FORMULATIONS” (priority 2015, published 2018).
Where two headings read alike, the source gives them in different places. Marks after values point to notes of the source that are not given here.

Experiments:
[1] = Combinatory PNL formulations with cyclosporine (2.2.1); type: physicochemical; details: for dissolution in the cyclosporine formulation: 50 and 100 mg added to cyclosporine solution, visual, after refrigeration
Procedure: The mixtures were examined visually for complete dissolution, precipitation after 24 hours at refrigeration and for particle size when added to water.
The particle size of the formulations, when added to water, was above 100 nm, compared to the original formulation, as determined by transmission UV at 550 nm turbidity test.
Extensive testing and adjustments were required to design a formulation that could fit two or more agents in a single formulation.

[2] = Preliminary screening for maximum CBD loading; type: physicochemical
[3] = Procedure: Formulations prepared by mixing the dry solid powder of the tested compound in either the blank formulation to form 5% w/v or in a formulation already containing 5% w/w CBD. Particle size was determined by particle size analyzer.

C=C(C)[C@@H]1CCC(C)=C[C@H]1c1c(O)cc(CCCCC)cc1O [CBD, Cannabidiol]
appearance in the cyclosporine solution ([1]; CBD at 50 mg): clear solution
maximum CBD load allowing formation of clear solution [2]: 10-12.5%

CC(C)CCC[C@@H](C)[C@H]1CC[C@H]2[C@@H]3CC=C4C[C@@H](O)CC[C@]4(C)[C@H]3CC[C@]12C [Cholesterol]
PDI ([3]; 3 hr after dissolution): 0.487**
Particle size ([3]; 3 hr after dissolution): 96.43 nm
Visual ([3]; 3 hr after dissolution): turbid
PDI ([3]; after 13 days in 4 C): 0.516
Particle size ([3]; after 13 days in 4 C): 86.94 nm
Visual ([3]; after 13 days in 4 C): turbid

CC(=O)O[C@H]1C(=O)[C@@]2(C)[C@H]([C@H](OC(=O)c3ccccc3)[C@]3(O)C[C@H](OC(=O)[C@H](O)[C@@H](NC(=O)c4ccccc4)c4ccccc4)C(C)=C1C3(C)C)[C@]1(OC(C)=O)CO[C@@H]1C[C@@H]2O [Paclitxel]
dissolution in the cyclosporine formulation [1]: did not fully dissolve
Solubility in PNL with 5% CBD [3]: ~
Particle size ([3]; 3 hr after dissolution): ~50 nm
Visual ([3]; 3 hr after dissolution): clear
Visual ([3]; after 13 days in 4 C): precipitate

O=C(N[C@H](CO)[C@H](O)c1ccc([N+](=O)[O-])cc1)C(Cl)Cl [Chloramphenicol]
PDI ([3]; 3 hr after dissolution): 0.118
Particle size ([3]; 3 hr after dissolution): 30.03 nm
Visual ([3]; 3 hr after dissolution): clear
PDI ([3]; after 13 days in 4 C): 0.172
Particle size ([3]; after 13 days in 4 C): 29.64 nm
Visual ([3]; after 13 days in 4 C): clear

CCOC(=O)c1ccc(N)cc1 [Benzocaine]
PDI ([3]; 3 hr after dissolution): 0.449
Particle size ([3]; 3 hr after dissolution): 62.22 nm
Visual ([3]; 3 hr after dissolution): clear
PDI ([3]; after 13 days in 4 C): 0.479
Particle size ([3]; after 13 days in 4 C): 65.82 nm
Visual ([3]; after 13 days in 4 C): clear

C[C@@H]1[C@H](O)[C@@H](C)/C=C/C=C/C=C/C=C/C=C/C=C/C=C/[C@H](O[C@@H]2O[C@H](C)[C@@H](O)[C@H](N)[C@@H]2O)C[C@@H]2O[C@](O)(C[C@@H](O)C[C@@H](O)[C@H](O)CC[C@@H](O)C[C@@H](O)CC(=O)O[C@H]1C)C[C@H](O)[C@H]2C(=O)O [Amphitericin B]
dissolution in the cyclosporine formulation [1]: did not fully dissolve

CC(C)Cc1ccc(C(C)C(=O)O)cc1 (centres unmarked) [Ibuprofen]
PDI ([3]; 3 hr after dissolution): 0.398
Particle size ([3]; 3 hr after dissolution): 74.28 nm
Visual ([3]; 3 hr after dissolution): clear
PDI ([3]; after 13 days in 4 C): 0.367
Particle size ([3]; after 13 days in 4 C): 67.86 nm
Visual ([3]; after 13 days in 4 C): clear
